Tests used:
[1] = target: T1, Cytochrome P450 1A1 (Homo sapiens, UniProt P04798); assay: Inhibition of human CYP1A1 at 10 uM; format: ADME
T1 sequence (P04798 whole entry): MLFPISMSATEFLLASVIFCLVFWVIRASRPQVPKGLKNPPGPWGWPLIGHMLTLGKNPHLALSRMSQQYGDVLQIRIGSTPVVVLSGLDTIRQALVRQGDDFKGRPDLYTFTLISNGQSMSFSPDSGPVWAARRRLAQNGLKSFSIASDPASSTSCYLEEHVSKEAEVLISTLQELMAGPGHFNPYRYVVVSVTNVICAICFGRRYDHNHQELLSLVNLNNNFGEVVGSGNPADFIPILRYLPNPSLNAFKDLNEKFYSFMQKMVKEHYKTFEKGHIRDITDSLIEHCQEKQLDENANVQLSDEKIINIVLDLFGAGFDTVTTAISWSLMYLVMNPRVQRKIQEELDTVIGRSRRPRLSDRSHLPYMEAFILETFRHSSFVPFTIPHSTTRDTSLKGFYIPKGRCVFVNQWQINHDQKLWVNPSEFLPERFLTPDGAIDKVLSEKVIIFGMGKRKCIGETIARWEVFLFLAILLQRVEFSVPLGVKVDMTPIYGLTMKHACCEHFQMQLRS

[2] = target: T2, Aromatase (Homo sapiens, UniProt P11511); assay: Inhibition of human CYP19 at 10 uM; format: ADME
T2 sequence (P11511 whole entry): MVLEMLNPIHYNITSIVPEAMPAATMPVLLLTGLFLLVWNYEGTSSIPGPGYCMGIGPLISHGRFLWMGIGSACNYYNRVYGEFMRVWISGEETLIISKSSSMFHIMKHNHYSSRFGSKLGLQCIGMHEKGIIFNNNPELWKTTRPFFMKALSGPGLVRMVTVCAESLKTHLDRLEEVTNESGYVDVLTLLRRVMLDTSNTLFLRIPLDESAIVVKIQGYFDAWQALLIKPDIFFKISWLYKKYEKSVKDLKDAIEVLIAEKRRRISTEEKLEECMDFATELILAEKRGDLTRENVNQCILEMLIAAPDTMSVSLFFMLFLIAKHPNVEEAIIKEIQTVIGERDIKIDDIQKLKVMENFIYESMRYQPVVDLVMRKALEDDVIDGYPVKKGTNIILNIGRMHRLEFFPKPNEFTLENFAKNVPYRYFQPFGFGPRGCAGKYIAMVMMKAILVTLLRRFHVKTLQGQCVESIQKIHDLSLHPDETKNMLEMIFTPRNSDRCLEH

In the case of `O=C1N[C@H]2[C@H](O)[C@H](O)[C@@H](O)C[C@@H]2c2cc3c(c(O)c21)OCO3`, the “inhibition (INH)” value [1] is reported as “Not Active” and the “inhibition (INH)” value [2] is reported as “Not Active”.
